Data published in ChEMBL document CHEMBL2380214, “Novel hybrids of (phenylsulfonyl)furoxan and anilinopyrimidine as potent and selective epidermal growth factor receptor inhibitors for intervention of non-small-cell lung cancer” (J Med Chem, 2013).
Active and inactive are the calls of the source. No cut-off for these calls is given here.

Legend:
A549 = experiment: cells; type: ADME, cell-based; details: Homo sapiens, A549, 72 h
Description: Cytotoxicity against human A549 cells harboring wild type EGFR and k-RAS mutation assessed as growth inhibition after 72 hrs by MTT assay

cells [1] = type: functional, cell-based; details: Homo sapiens, HCC827, 72 h
cells [2] = type: ADME, cell-based; details: Homo sapiens, 16HBE14o-, 72 h
Description: Cytotoxicity against human 16HBE14o- cells harboring wild type EGFR assessed as growth inhibition after 72 hrs by MTT assay

cells [3] = type: ADME, cell-based; details: Homo sapiens, BEAS-2B, 72 h
Description: Cytotoxicity against human BEAS2B cells harboring wild type EGFR assessed as growth inhibition after 72 hrs by MTT assay

[4] = target: Epidermal growth factor receptor (Homo sapiens, UniProt P00533, L858R); type: protein assay
Chain of Epidermal growth factor receptor (Homo sapiens, UniProt P00533, L858R) (P00533 25-1210 L858R limits assumed): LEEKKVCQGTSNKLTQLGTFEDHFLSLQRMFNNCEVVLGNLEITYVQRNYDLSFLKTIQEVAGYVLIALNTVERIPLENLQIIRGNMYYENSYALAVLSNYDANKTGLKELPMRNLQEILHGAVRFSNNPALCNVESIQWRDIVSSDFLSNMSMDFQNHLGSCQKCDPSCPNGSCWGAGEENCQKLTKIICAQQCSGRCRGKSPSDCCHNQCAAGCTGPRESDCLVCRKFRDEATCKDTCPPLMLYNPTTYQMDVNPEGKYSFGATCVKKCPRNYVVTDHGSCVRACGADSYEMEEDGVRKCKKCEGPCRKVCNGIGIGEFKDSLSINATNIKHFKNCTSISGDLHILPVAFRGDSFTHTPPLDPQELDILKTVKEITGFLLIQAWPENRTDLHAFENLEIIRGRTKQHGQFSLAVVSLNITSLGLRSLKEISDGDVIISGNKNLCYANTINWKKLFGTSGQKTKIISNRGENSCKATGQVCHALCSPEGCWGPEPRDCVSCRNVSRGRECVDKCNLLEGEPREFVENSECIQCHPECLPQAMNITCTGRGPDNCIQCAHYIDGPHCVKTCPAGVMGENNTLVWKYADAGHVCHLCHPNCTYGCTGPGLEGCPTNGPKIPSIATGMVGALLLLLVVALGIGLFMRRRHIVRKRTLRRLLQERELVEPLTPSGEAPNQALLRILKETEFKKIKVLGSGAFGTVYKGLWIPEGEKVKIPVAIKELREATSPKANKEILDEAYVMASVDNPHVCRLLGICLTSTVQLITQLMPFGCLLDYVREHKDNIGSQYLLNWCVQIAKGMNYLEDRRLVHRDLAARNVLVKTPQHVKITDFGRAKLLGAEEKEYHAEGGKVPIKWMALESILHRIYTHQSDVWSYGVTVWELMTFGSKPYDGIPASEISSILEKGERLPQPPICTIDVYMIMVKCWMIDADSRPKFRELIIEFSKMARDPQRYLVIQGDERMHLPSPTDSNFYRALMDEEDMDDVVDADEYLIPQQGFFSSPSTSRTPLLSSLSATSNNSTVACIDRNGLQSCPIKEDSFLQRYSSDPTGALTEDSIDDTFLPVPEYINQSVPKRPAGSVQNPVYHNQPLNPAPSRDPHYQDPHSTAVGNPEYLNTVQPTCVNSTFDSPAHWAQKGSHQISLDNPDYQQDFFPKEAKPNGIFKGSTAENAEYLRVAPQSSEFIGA
Description: Inhibition of EGFR L858R mutant (unknown origin) after 1.5 hrs by FRET-based Z'Lyte assay

[5] = target: Epidermal growth factor receptor (Homo sapiens, UniProt P00533, L858R/T790M); type: protein assay
Chain of Epidermal growth factor receptor (Homo sapiens, UniProt P00533, L858R/T790M) (P00533 25-1210 T790M/L858R limits assumed): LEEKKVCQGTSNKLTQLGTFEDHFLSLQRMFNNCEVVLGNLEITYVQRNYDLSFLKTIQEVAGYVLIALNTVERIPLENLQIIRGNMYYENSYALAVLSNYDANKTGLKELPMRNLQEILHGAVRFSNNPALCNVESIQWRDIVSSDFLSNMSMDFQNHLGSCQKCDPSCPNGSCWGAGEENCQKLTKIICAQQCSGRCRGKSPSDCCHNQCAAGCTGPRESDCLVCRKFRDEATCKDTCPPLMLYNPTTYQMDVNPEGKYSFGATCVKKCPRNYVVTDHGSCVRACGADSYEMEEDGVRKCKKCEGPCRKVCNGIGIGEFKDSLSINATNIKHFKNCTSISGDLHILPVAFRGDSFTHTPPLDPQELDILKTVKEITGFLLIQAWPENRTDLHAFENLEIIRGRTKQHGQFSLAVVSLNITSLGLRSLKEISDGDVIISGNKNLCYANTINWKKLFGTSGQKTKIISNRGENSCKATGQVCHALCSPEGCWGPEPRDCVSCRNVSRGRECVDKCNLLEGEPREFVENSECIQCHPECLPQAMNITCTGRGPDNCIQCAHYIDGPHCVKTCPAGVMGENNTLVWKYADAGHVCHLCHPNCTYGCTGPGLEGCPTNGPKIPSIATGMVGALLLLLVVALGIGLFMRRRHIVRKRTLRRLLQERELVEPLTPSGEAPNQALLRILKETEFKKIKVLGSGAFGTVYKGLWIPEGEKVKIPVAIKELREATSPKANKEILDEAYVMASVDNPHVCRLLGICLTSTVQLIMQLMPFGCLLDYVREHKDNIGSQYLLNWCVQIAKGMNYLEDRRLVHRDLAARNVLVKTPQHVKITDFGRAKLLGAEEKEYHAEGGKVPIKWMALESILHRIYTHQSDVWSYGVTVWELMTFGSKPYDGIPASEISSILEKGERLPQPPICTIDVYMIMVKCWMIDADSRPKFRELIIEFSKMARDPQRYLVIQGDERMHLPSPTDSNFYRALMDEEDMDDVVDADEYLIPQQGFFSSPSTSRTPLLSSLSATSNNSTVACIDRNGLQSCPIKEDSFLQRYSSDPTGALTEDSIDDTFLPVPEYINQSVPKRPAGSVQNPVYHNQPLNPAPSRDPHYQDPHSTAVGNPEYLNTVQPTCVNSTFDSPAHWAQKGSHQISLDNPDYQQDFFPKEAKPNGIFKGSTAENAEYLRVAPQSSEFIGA
Description: Inhibition of EGFR L858R/T790M double mutant (unknown origin) after 1.5 hrs by FRET-based Z'Lyte assay

NCI-H1975 [6] = experiment: Cytotoxicity against gefitinib-resistant human NCI-H1975 cells harboring EGFR L858R/[…] double mutant assessed as growth inhibition after 72 hrs by MTT assay; type: functional, cell-based; details: NCI-H1975, 72 h
[7] = target: Epidermal growth factor receptor (Homo sapiens, UniProt P00533)
Chain of Epidermal growth factor receptor (Homo sapiens, UniProt P00533) (P00533 whole entry): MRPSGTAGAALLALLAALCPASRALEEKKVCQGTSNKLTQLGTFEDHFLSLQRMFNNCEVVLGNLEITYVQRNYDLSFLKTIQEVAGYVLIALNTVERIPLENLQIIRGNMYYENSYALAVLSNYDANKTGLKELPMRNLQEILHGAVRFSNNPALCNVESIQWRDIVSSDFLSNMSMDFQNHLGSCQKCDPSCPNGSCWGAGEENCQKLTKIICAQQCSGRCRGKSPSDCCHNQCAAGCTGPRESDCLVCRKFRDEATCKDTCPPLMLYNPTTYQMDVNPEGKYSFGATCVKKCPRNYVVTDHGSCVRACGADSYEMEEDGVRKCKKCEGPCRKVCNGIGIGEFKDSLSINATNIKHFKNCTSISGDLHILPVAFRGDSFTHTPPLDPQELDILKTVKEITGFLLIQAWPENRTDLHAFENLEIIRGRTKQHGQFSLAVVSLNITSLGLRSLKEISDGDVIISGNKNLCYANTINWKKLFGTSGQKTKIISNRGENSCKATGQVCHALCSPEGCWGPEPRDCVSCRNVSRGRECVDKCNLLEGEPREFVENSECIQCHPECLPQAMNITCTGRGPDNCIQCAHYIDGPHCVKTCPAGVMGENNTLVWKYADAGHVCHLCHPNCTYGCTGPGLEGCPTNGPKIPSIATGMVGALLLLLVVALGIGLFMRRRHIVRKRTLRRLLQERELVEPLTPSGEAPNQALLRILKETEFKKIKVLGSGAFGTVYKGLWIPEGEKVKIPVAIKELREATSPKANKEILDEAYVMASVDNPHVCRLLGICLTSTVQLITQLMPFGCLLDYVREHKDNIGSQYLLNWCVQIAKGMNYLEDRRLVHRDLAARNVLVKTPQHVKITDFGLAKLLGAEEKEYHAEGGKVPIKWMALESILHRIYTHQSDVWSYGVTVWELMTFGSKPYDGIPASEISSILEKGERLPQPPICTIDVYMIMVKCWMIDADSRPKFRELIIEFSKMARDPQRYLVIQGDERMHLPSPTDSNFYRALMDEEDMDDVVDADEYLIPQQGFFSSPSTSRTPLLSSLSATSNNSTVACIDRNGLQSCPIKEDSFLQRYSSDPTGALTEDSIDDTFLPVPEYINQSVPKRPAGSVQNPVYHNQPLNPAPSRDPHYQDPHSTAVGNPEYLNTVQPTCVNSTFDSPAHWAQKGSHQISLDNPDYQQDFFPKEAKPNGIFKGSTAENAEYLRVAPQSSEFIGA
Description: Inhibition of wild type EGFR (unknown origin) after 1.5 hrs by FRET-based Z'Lyte assay

NCI-H1975 [8] = experiment: Induction of NO production in human NCI-H1975 cells harboring EGFR L858R/[…] double mutant assessed as increase in nitrite level at 100 uM after 150 mins by Griess assay; type: functional, cell-based
A-431 = experiment: cells; type: ADME, cell-based; details: Homo sapiens, A-431, 72 h
Description: Cytotoxicity against human A431 cells overexpressing wild type EGFR assessed as growth inhibition after 72 hrs by MTT assay

[9] = Selectivity ratio of IC50 for human A431 cells overexpressing wild type EGFR to IC50 for gefitinib-sensitive human HCC827 cells harboring EGFR […] deletion mutant; type: ADME, cell-based
[10] = Selectivity ratio of IC50 for human A431 cells overexpressing wild type EGFR to IC50 for gefitinib-resistant human NCI-H1975 cells harboring EGFR L858R/[…] double mutant; type: ADME, cell-based
[11] = Selectivity ratio of IC50 for human 16HBE14o- cells harboring wild type EGFR to IC50 for gefitinib-resistant human NCI-H1975 cells harboring EGFR L858R/[…] double mutant; type: ADME, cell-based; details: read-out: Ratio IC50
[12] = Selectivity ratio of IC50 for human BEAS2B cells harboring wild type EGFR to IC50 for gefitinib-sensitive human HCC827 cells harboring EGFR […] deletion mutant; type: ADME, cell-based; details: read-out: Ratio IC50
[13] = Selectivity ratio of IC50 for human BEAS2B cells harboring wild type EGFR to IC50 for gefitinib-resistant human NCI-H1975 cells harboring EGFR L858R/[…] double mutant; type: ADME, cell-based; details: read-out: Ratio IC50
[14] = Selectivity ratio of IC50 for human 16HBE14o- cells harboring wild type EGFR to IC50 for gefitinib-sensitive human HCC827 cells harboring EGFR […] deletion mutant; type: ADME, cell-based; details: read-out: Ratio IC50
[15] = Selectivity ratio of IC50 for human A549 cells harboring wild type EGFR and k-RAS mutation to IC50 for gefitinib-resistant human NCI-H1975 cells harboring EGFR L858R/[…] double mutant; type: ADME, cell-based
[16] = Selectivity ratio of IC50 for human A549 cells harboring wild type EGFR and k-RAS mutation to IC50 for gefitinib-sensitive human HCC827 cells harboring EGFR […] deletion mutant; type: ADME, cell-based
[17] = test system: Epidermal growth factor receptor (Homo sapiens), P00533 [L858R,T790M]; details: NCI-H1975, 0.01 to 1 uM
Chain of Epidermal growth factor receptor (Homo sapiens), P00533 [L858R,T790M] (P00533 whole entry T790M/L858R, looked up): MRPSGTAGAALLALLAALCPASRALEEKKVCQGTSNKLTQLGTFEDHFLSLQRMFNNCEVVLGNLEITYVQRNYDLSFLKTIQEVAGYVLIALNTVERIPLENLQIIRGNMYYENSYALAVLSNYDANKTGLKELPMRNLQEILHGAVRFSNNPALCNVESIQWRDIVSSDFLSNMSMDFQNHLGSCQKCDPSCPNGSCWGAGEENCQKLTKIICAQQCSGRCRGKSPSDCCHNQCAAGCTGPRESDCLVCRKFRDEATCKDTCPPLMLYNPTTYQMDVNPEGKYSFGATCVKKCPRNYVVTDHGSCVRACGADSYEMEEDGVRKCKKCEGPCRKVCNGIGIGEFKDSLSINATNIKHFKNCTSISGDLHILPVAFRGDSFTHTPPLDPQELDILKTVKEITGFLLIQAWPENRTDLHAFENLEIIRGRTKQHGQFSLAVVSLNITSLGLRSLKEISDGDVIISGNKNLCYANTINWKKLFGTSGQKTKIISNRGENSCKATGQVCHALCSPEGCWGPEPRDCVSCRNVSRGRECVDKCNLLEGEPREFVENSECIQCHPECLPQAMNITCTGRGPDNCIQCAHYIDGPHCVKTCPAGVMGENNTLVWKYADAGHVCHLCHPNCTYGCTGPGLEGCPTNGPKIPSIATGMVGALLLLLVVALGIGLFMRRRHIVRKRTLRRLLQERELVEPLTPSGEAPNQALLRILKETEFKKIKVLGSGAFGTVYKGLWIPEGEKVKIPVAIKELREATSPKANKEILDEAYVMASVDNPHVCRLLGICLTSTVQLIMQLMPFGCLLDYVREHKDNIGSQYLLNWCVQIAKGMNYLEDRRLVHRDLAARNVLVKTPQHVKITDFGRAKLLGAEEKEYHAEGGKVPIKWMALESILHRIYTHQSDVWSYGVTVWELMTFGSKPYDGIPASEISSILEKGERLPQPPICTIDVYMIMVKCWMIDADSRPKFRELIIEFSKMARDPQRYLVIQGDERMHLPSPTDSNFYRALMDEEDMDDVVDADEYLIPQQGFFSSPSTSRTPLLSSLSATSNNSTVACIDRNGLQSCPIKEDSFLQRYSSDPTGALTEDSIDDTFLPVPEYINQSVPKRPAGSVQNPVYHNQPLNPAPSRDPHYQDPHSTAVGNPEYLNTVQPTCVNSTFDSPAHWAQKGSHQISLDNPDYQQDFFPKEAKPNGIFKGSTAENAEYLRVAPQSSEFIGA

NCI-H1975 [18] = experiment: Induction of apoptosis in gefitinib-resistant human NCI-H1975 cells harboring EGFR L858R/[…] double mutant after 24 hrs by annexin-V/7-AAD staining-based FACS flow cytometric analysis; type: functional, cell-based
[19] = Induction of NO production in human 16HBE14o- cells harboring wild type EGFR assessed as increase in nitrite level at 100 uM after 150 mins by Griess assay; type: cell-based; details: 2.5 h
HCC827 = experiment: Induction of apoptosis in gefitinib-sensitive human HCC827 cells harboring EGFR […] deletion mutant after 24 hrs by annexin-V/7-AAD staining-based FACS flow cytometric analysis; type: functional, cell-based
NCI-H1975 [20] = experiment: Inhibition of NFkappaB phosphorylation in gefitinib-resistant human NCI-H1975 cells harboring EGFR L858R/[…] double mutant at 0.01 to 1 uM after 24 hrs by Western blot analysis; type: cell-based
[21] = Induction of apoptosis in EGFR-independent human H460 cells at 1 to 5 uM after 24 hrs by annexin-V/7-AAD staining-based FACS flow cytometric analysis; type: cell-based; details: nci-h460, 24 h
[22] = test system: Epidermal growth factor receptor (Homo sapiens), P00533 [L858R,T790M]; details: NCI-H1975, 0.01 to 1 uM; remark: listed apart in the source
NCI-H1975 [23] = experiment: Antitumor activity against gefitinib-resistant human NCI-H1975 cells harboring EGFR L858R/[…] double mutant xenografted in athymic BALB/c nude mouse assessed as tumor growth inhibition at 8 mg/kg, ip qd administered for 14 days measured every other day during compound administration relative to vehicle-treated control; type: functional; details: 336 h, route intraperitoneal, read-out: TGI
[24] = test system: Epidermal growth factor receptor (Homo sapiens), P00533 [L858R,T790M]; details: NCI-H1975, 0.01 to 1 uM; remark: listed apart in the source

| SMILES | IC50 (A549) | IC50 (cells [1]) | IC50 (cells [2]) | IC50 (cells [3]) | IC50 [4] | IC50 [5] | IC50 (NCI-H1975 [6]) | IC50 [7] | Activity (NCI-H1975 [8]) | IC50 (A-431) | other results |
| --- | --- | --- | --- | --- | --- | --- | --- | --- | --- | --- | --- |
| C=CC(=O)Nc1cccc(Oc2nc(Nc3ccc(N4CCN(CC(=O)OCC#CCOc5no[n+]([O-])c5S(=O)(=O)c5ccccc5)CC4)cc3OC)ncc2Cl)c1 | 5530 nM | 10 nM | 2620 nM | 959 nM | 64 nM | 16 nM | 43 nM | 52 nM | Active | 3500 nM |  |
| C=CC(=O)Nc1cccc(Oc2nc(Nc3ccc(N4CCN(CC(=O)OCCCCOc5no[n+]([O-])c5S(=O)(=O)c5ccccc5)CC4)cc3OC)ncc2Cl)c1 | 17200 nM | 6 nM | 4150 nM | 2560 nM | 189 nM | 38 nM | 69 nM | 174 nM |  | 4070 nM | Ratio IC50 [9]: 60; Ratio IC50 [10]: 60; selectivity ratio [11]: 40; selectivity ratio [12]: 40; selectivity ratio [13]: 40; selectivity ratio [14]: 40; Ratio IC50 [15]: 60; Ratio IC50 [16]: 60 |
| C=CC(=O)Nc1cccc(Oc2nc(Nc3ccc(N4CCN(CC(=O)NCC(C)Oc5no[n+]([O-])c5S(=O)(=O)c5ccccc5)CC4)cc3OC)ncc2Cl)c1 (stereo not given) | 1790 nM | 38 nM | 1850 nM | 988 nM | 99 nM | 20 nM | 245 nM | 73 nM | Active | 660 nM |  |
| C=CC(=O)Nc1cccc(Oc2nc(Nc3ccc(N4CCN(C)CC4)cc3OC)ncc2Cl)c1 | 2100 nM | 8 nM |  | 1810 nM |  |  | 46 nM |  | inactive |  | inhibition [17]: Active; Activity (NCI-H1975 [18]): Dose-dependent effect; Activity [19]: Non-toxic; Activity (HCC827): Dose-dependent effect; inhibition (NCI-H1975 [20]): inactive; Activity [21]: Non-toxic; inhibition [22]: Active; inhibition in vivo at 8 mg/kg (NCI-H1975 [23]): 69%; inhibition [24]: Active |
| C=CC(=O)Nc1cccc(Oc2nc(Nc3ccc(N4CCN(CC(=O)NCCCOc5no[n+]([O-])c5S(=O)(=O)c5ccccc5)CC4)cc3OC)ncc2Cl)c1 | 2480 nM | 21 nM | 2280 nM | 2440 nM | 68 nM | 13 nM | 1030 nM | 59 nM |  | 357 nM |  |
| C=CC(=O)Nc1cccc(Oc2nc(Nc3ccc(N4CCN(CC(=O)N5CCC(Oc6no[n+]([O-])c6S(=O)(=O)c6ccccc6)CC5)CC4)cc3OC)ncc2Cl)c1 | 4250 nM | 33 nM | 1800 nM | 2200 nM | 66 nM | 13 nM | 855 nM | 42 nM |  | 701 nM |  |
| C=CC(=O)Nc1cccc(Oc2nc(Nc3ccc(N4CCN(CC(=O)OCCCOc5no[n+]([O-])c5S(=O)(=O)c5ccccc5)CC4)cc3OC)ncc2Cl)c1 | 2930 nM | 22 nM | 2580 nM | 2980 nM | 98 nM | 23 nM | 396 nM | 99 nM |  | 1060 nM |  |
| O=S(=O)(c1ccccc1)c1c(OCCCCCCO)no[n+]1[O-] | 23600 nM | 4290 nM | 3400 nM | 1240 nM |  |  | 5930 nM |  | Active | 3380 nM |  |
| C=CC(=O)Nc1cccc(Oc2nc(Nc3ccc(N4CCN(CC(=O)NCCOc5no[n+]([O-])c5S(=O)(=O)c5ccccc5)CC4)cc3OC)ncc2Cl)c1 | 2260 nM | 9 nM | 1550 nM | 1530 nM | 63 nM | 14 nM | 2020 nM | 51 nM | Active | 736 nM |  |
| C=CC(=O)Nc1cccc(Oc2nc(Nc3ccc(N4CCN(CC(=O)OCC)CC4)cc3OC)ncc2Cl)c1 | 1450 nM | 100 nM | 707 nM | > 50000 nM |  |  | 1510 nM |  |  | > 10000 nM |  |
| C=CC(=O)Nc1cccc(Oc2nc(Nc3ccc(N4CCN(CC(=O)N5CCN(CCOc6no[n+]([O-])c6S(=O)(=O)c6ccccc6)CC5)CC4)cc3OC)ncc2Cl)c1 | 2120 nM | 291 nM | 1480 nM | 1890 nM | 40 nM | 6 nM | 311 nM | 39 nM | Active | 609 nM |  |
| C=CC(=O)Nc1cccc(Oc2nc(Nc3ccc(N4CCN(CC(=O)OCCOc5no[n+]([O-])c5S(=O)(=O)c5ccccc5)CC4)cc3OC)ncc2Cl)c1 | 2560 nM | 7 nM | 2040 nM | 1350 nM | 83 nM | 17 nM | 63 nM | 59 nM |  | 1230 nM |  |
| C=CC(=O)Nc1cccc(Oc2nc(Nc3ccc(N4CCN(CC(=O)OCCOCCOc5no[n+]([O-])c5S(=O)(=O)c5ccccc5)CC4)cc3OC)ncc2Cl)c1 | 4450 nM | 41 nM | 3160 nM | 2940 nM | 113 nM | 30 nM | 471 nM | 101 nM | Active | 3020 nM |  |
